Laboratory results: patent US10870638B2, “Pyridazinone compound or its salt, and herbicide containing it” (ISHIHARA SANGYO KAISHA, LTD., priority 2016, dated 2020)

Tests used:
Assay in all cases: Test Example 1: foliar treatment, growth inhibition rate on 14th day
Assay type in all cases: in vivo
Details in all cases: active ingredient amount 31 g/ha, 14th day after application
[1] = tested on: wheat (Triticum aestivum L.)
How it was run: (§1)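 Visual 0–100% inhibition scoring (100 = complete kill) at 14 days after foliar treatment of soil-grown seedlings at species-specific leaf stages, with the compound sprayed as a wettable powder or emulsifiable concentrate dilution.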

[2] = tested on: redroot pigweed (Amaranthus retroflexus L.)
How it was run: as §1

[3] = tested on: italian ryegrass (Lolium multiflorum Lam.)
How it was run: as §1

[4] = tested on: barnyardgrass (Echinochloa crus-qalli L.)
How it was run: as §1

[5] = tested on: crabgrass (Digitaria sanquinalis L.)
How it was run: as §1

corn (Zea mays L.) = tested on: corn (Zea mays L.)
How it was run: as §1

rice (Oryza sativa L.) = tested on: rice (Oryza sativa L.)
How it was run: (§2)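 Inhibition was rated visually 14 days after treatment on a 0–100% scale, where 100 is complete kill. Compounds, formulated as wettable powders or emulsifiable concentrates at set active-ingredient amounts, were diluted to 1,000 L/ha with 0.1 vol% spreader. The dilutions were sprayed post-emergence onto soybean (primary leaf), rice (0.2–2.7 leaf), wild oat (0.4–1.2) and green foxtail (0.5–3.2).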

[6] = tested on: soybean (Glycine max Merr.)
How it was run: as §2

[7] = tested on: wild oat (Avena fatua L.)
How it was run: as §2

[8] = tested on: green foxtail (Setaria viridis L.)
How it was run: as §2

[9] = visual, 0 = non-treated, 100 = complete kill

Structure (SMILES) | Growth inhibition rate (%) Wheat [1] [%] | Growth inhibition rate (%) Redroot pigweed [2] [%] | Growth inhibition rate (%) Italian ryegrass [3] [%] | Growth inhibition rate (%) Barnyardgrass [4] [%] | Growth inhibition rate (%) Crabgrass [5] [%] | Growth inhibition rate (%) Corn (corn (Zea mays L.)) [%] | Growth inhibition rate (%) Rice (rice (Oryza sativa L.)) [%] | Growth inhibition rate (%) Soybean [6] [%] | Growth inhibition rate (%) Wild oat [7] [%] | Growth inhibition rate (%) Green foxtail [8] [%] | Growth inhibition rate (%) Wheat [1, 9] [%] | Growth inhibition rate (%) Redroot pigweed [2, 9] [%] | Growth inhibition rate (%) Italian ryegrass [3, 9] [%] | Growth inhibition rate (%) Barnyardgrass [4, 9] [%] | Growth inhibition rate (%) Crabgrass [5, 9] [%] | Growth inhibition rate (%) Corn (corn (Zea mays L.); [9]) [%] | Growth inhibition rate (%) Rice (rice (Oryza sativa L.); [9]) [%] | Growth inhibition rate (%) Soybean [6, 9] [%] | Growth inhibition rate (%) Wild oat [7, 9] [%] | Growth inhibition rate (%) Green foxtail [8, 9] [%]
CC(=O)Oc1c(C)nn(C)c(=O)c1-c1cc(Oc2ccc(C(F)(F)F)cc2Cl)ccc1C [Compound 2-114] | 25 | 0 | 80 | 98 | 10 | 75 | 10 | 0 | 83 | 80 | – | – | – | – | – | – | – | – | – | –
CC(=O)Oc1c(C)nn(C)c(=O)c1-c1cc(Oc2ncc(Cl)cc2C(F)(F)F)ccc1C [Compound 2-125] | 50 | 0 | 93 | 100 | 90 | 90 | 70 | 0 | 90 | 50 | – | – | – | – | – | – | – | – | – | –
Cc1ccc(Oc2ccc3nc(Cl)cn3n2)cc1-c1c(O)c(C)nn(C)c1=O [Compound 2-193] | 0 | 0 | 0 | 70 | 90 | 65 | 0 | 0 | 0 | 93 | – | – | – | – | – | – | – | – | – | –
CCc1nn(C)c(=O)c(-c2cc(Oc3nc4ccc(Cl)cc4o3)ccc2C)c1OC(C)=O [Compound 2-122] | 60 | 0 | 75 | 100 | 90 | 85 | 0 | 40 | 60 | 95 | – | – | – | – | – | – | – | – | – | –
Cc1ccc(Oc2cnc3cc(Cl)ccc3n2)cc1-c1c(OC(=O)CC2CCCCC2)c(C)nn(C)c1=O [Compound 3-80] | – | – | – | – | – | – | – | – | – | – | 90 | 0 | 93 | 100 | 95 | 25 | 0 | 25 | 99 | 99
Cc1ccc(Oc2cnc3cc(Cl)ccc3n2)cc1-c1c(OC(=O)c2cn(C)nc2C)c(C)nn(C)c1=O [Compound 3-43] | 95 | 0 | 98 | 100 | 98 | 40 | 80 | 10 | 98 | 100 | – | – | – | – | – | – | – | – | – | –
CC(=O)Oc1c(C)nn(C)c(=O)c1-c1cc(Nc2ncc(C(F)(F)F)cc2Cl)ccc1C [1-146] | 85 | 0 | 70 | 98 | 90 | 75 | 0 | 10 | 88 | 93 | – | – | – | – | – | – | – | – | – | –
Cc1ccc(Oc2nc3cc(F)ccc3o2)cc1-c1c(O)cnn(C)c1=O [Compound 2-184] | 10 | 0 | 35 | 95 | 95 | 40 | 60 | 30 | 30 | 99 | – | – | – | – | – | – | – | – | – | –
